Test results published in US12054457B2, “Polymorphs of (2S,5R)-5-(2-chlorophenyl)-1-(2′-methoxy-[1,1′-biphenyl]-4-carbonyl)pyrrolidine-2-carboxylic acid and preparation processes thereof” (EPICS THERAPEUTICS, priority 2022, dated 2024).
Where a name gives a salt, the structure may show the parent alone.

Columns and labels:
Type in all cases: physicochemical
[1] = Hygroscopicity: weight gain on storage at fixed relative humidity
Excerpt: The previously described solid forms of (2S,5R)-5-(2-chlorophenyl)-1-(2′-methoxy-[1,1′-biphenyl]-4-carbonyl)pyrrolidine-2-carboxylic acid, i.e. the amorphous free acid and the corresponding Na salt, both disclosed in WO2021/250174, are hygroscopic.

[2] = Cross-seeding tests in water and n-heptane; settings: 25° C., form II suspension seeded with form I
Experimental: Cross-seeding tests were carried out in water and n-heptane.
Method. Saturated solutions of form II were prepared at 25° C. in water and in n-heptane. The suspensions were then seeded with form I after 45 minutes, and kept under stirring at 25° C. The solid phases in suspensions were then periodically controlled by XRPD.

[3] = Thermal gravimetric analysis (TGA); settings: temperature range 10° C.-200° C., 10° C./min, nitrogen purge
Experimental: The thermal gravimetric analysis (TGA) experiments were performed on a Mettler Toledo TGA/DSC3+ apparatus. The samples (about 10-30 mg) were placed in a 100 μL aluminum sample pan and crimped with a punctured cover. […]

[4] = Competitive slurry test between form I and form II in isopropyl alcohol
Experimental: A competitive slurry test between form I and form II of compound (1) was carried out at 10° C., 20° C., 25° C., 30° C. and 40° C. in isopropyl alcohol.
Method. Suspensions of compound (1) under form II, in isopropyl alcohol, were first prepared and equilibrated for 30 min at each of the temperatures to be studied. About 800 μL of the saturated solutions were then sampled, filtered through a 0.2 μm HPTFE filter, and added into a vial containing 50 mg of form I and 50 mg of form II, equipped with a magnetic rod. After 10 seconds, a first sample of the solid phase is taken and analyzed by XRPD to identify the solid phase(s) present. Additional sampling are also performed until only 1 solid phase remains.

[5] = Hygroscopicity by dynamic vapor sorption (DVS)
Experimental: The determination of the hygroscopicity of crystalline forms I and II was also evaluated by dynamic vapor sorption (DVS).
The analyses were performed on a Surface Measurements System DVS Intrinsic. The samples were placed in an open aluminum pan. The analyses were performed at 25° C. Relative humidity (RH) was scanned between 0% RH and 95% RH, with 10% RH steps (40-0-95-0-95). The stability criterion was a variation in mass lower than 0.002% on a 5 min. window, with a minimum step time of 10 min and a maximum of 100 min.

[6] = Thermodynamic stability over time
[7] = Competitive slurry test between form I and form II in n-heptane; settings: 10° C., 20° C., 25° C., 30° C. and 40° C.
Experimental: A competitive slurry test between form I and form II of compound (1) was carried out at 10° C., 20° C., 25° C., 30° C. and 40° C. in n-heptane.
Method. About 1 mL of n-heptane was added into vials containing 40 mg of form I and 40 mg of form II, equipped with a magnetic rod. After 10 seconds, a first sample of the solid phase is taken and analyzed by XRPD to identify the solid phase(s) present. Additional sampling are also performed until only 1 solid phase remains.

## COc1ccccc1-c1ccc(C(=O)N2[C@@H](c3ccccc3Cl)CC[C@H]2C(=O)O)cc1 [Na salt, (2S,5R)-5-(2-chlorophenyl)-1-(2′-methoxy-[1,1′-biphenyl]-4-carbonyl)pyrrolidine-2-carboxylic acid]
[1]; 40% relative humidity, after 14 h
  weight gain: 7 wt %
[1]; 70% relative humidity, 22° C., after 14 h
  weight gain: 20 wt %

## COc1ccccc1-c1ccc(C(=O)N2[C@@H](c3ccccc3Cl)CC[C@H]2C(=O)O)cc1 [amorphous free acid, (2S,5R)-5-(2-chlorophenyl)-1-(2′-methoxy-[1,1′-biphenyl]-4-carbonyl)pyrrolidine-2-carboxylic acid]
[1]; 40% relative humidity, after 2 days
  weight gain: 3 wt %
[1]; 70-75% relative humidity, room temperature, after 14 h
  weight gain: 8 wt %
[1]; previously described solid forms
  hygroscopicity (in words): hygroscopic

## COc1ccccc1-c1ccc(C(=O)N2[C@@H](c3ccccc3Cl)CC[C@H]2C(=O)O)cc1 [form I, (2S,5R)-5-(2-chlorophenyl)-1-(2′-methoxy-[1,1′-biphenyl]-4-carbonyl)pyrrolidine-2-carboxylic acid]
[2]
  relative stability of the forms: greater stability of form I vs. form II
[3]; listed as crystalline form I
  weight loss (TGA): −0.14%
[1]; 80% relative humidity, 25° C., after 10 days
  weight gain: 0.09 wt %
[4]; 10° C., 20° C., 25° C., 30° C. and 40° C.
  relative stability of the forms: more stable than form II
[5]; DVS and humidity exposure
  hygroscopicity (conclusion in words): non-hygroscopic
[5]; DVS, 25° C., 40% RH to 0% RH
  weight loss on first desorption stage: −0.1%
[5]; DVS, 25° C., first sorption stage (0% RH to 95% RH)
  weight gain at the end of the step at 70% RH: +0.1%
[5]; DVS, 25° C., first sorption stage (0% RH to 95% RH), listed as crystalline form I
  maximum weight gain at 95% RH: +0.7%
[6]
  time for which the form is thermodynamically stable: at least 6 months

## COc1ccccc1-c1ccc(C(=O)N2[C@@H](c3ccccc3Cl)CC[C@H]2C(=O)O)cc1 [form II, (2S,5R)-5-(2-chlorophenyl)-1-(2′-methoxy-[1,1′-biphenyl]-4-carbonyl)pyrrolidine-2-carboxylic acid]
[7]
  solid phase conversion (XRPD): conversion of form II into form I
[3]; listed as crystalline form II
  weight loss (TGA): −0.2%
[4]; 10-40° C., first sampling after 10 seconds
  solid phase present in suspension (XRPD): not visible anymore in the suspensions since the first sampling
[5]; DVS, 25° C., first sorption stage (0% RH to 95% RH), listed as crystalline form II
  maximum weight gain at 95% RH: +0.4%
